# Measurements published in paper PMC5064002, “Sintokamide A Is a Novel Antagonist of Androgen Receptor That Uniquely Binds Activation Function-1 in Its Amino-terminal Domain” (The Journal of Biological Chemistry, 2016).
# Read-outs that look alike come from different tables or passages of the source.
# Experiments:
# Tau5 = tested on: Tau5; design: method as in PMID 27356095; conditions: contact to residues 353–364, 397–407 and 433–466; cited from earlier work
# endogenous FL-AR = target: T1, endogenous FL-AR (Homo sapiens, UniProt P10275, T878A); assay: Binding assay of click chemistry probes to full-length AR in LNCaP cells; conditions: 20 μM LPY probes or 25 μM EPI-053, click chemistry, Western blot
# T1 construct: endogenous in cells; host or cells: LNCaP
# T1 sequence (P10275 1-920 T878A): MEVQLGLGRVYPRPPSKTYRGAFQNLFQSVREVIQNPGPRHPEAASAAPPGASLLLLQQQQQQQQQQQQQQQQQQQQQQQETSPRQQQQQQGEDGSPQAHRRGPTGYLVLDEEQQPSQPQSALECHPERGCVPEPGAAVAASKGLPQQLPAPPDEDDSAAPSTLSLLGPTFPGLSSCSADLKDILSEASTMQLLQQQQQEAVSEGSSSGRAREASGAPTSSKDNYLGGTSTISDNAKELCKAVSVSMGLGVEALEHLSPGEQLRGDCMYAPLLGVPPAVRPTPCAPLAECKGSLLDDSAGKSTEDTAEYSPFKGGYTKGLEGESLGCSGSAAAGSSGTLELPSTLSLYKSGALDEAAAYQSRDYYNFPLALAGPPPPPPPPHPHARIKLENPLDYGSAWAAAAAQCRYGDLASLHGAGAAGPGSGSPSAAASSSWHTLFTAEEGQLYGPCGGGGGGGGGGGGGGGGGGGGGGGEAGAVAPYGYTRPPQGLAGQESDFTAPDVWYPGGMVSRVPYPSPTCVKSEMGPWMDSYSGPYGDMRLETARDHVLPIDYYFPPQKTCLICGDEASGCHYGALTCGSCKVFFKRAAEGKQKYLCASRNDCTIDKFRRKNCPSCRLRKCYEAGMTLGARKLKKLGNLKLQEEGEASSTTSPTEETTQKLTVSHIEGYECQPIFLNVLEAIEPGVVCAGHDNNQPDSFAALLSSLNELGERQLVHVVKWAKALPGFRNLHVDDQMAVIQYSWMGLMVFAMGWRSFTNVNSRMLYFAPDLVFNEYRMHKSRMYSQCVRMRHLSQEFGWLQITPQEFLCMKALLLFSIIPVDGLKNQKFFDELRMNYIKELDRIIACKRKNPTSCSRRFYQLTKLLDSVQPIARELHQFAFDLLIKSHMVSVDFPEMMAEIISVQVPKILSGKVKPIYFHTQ
# Procedure: LNCaP cells were treated for 24 h with 20 μM modified SINT1 (LPY19, -30, and -31) or the vehicle dimethyl sulfoxide (DMSO). 25 μM EPI-053 (a modified EPI-001 analog) was used as positive control ([5]). Proteins were extracted with lysis buffer and subjected to click chemistry conditions for 3 h at 25 °C in buffer containing 0.1% SDS, 5% t-butyl alcohol, 100 μM tris[(1-benzyl-1H-1,2,3-triazol-4-yl)methyl]amine (Sigma), 1 mM tris(2-carboxyethyl)phosphine, 100 μM biotin-azide reagent, and 1 mM CuSO4. Samples were dialyzed in 50 mM HEPES, pH 8.0, 150 mM NaCl, 0.1% SDS, and 1% Triton X-100 to remove excess biotin-azide reagent. Biotinylated soluble receptors were captured with streptavidin-agarose resin. Protein-SINT1 complexes were separated by 10% SDS-PAGE and subjected to Western blotting analysis using AR-N20 (1:1000) and biotin (1:1000) antibodies. Proteins were visualized using ECL detection reagent (Amersham Biosciences).
# To reveal whether SINT1 binds to endogenous AR, LNCaP cells were incubated with modified SINT1 click chemistry probes (LPY19, LPY30, and LPY31 shown in Fig. 2A). The EPI-002 click chemistry probe EPI-053 was used as a positive control ([5]). […] LNCaP cells were incubated overnight with these probes prior to click chemistry to add biotin to each click chemistry probe (see schema in Fig. 2B, right). Cell lysates were used for immunoprecipitation with streptavidin to isolate those proteins bound to biotinylated probes. Immunocomplexes were split with one aliquot used for Western blotting analysis using an antibody to biotin (Fig. 2B, left) and the other aliquot for Western blotting analysis using an antibody to AR (Fig. 2B, middle). […] Consistent with these biotin bands corresponding to AR, the AR was immunoprecipitated with streptavidin only in those immunocomplexes that were both positive for biotin (Fig. 2B) and biologically active against AR transcriptional activity (EPI-053, LPY30, and LPY31).
# AR [1] = target: T2, AR (Homo sapiens, UniProt P10275, T878A); design: method as in PMID 23722902; conditions: cited from earlier work
# T2 construct: endogenous in cells; host or cells: LNCaP
# T2 sequence (P10275 1-920 T878A): T1 sequence (P10275 1-920 T878A)
# AR [2] = target: T2, AR; assay: AR transcriptional activity of SINT1 click chemistry probes, PSA (6.1 kb)-luciferase in LNCaP cells; assay type: cell-based; conditions: for biological activity measured using an AR-driven reporter gene construct: 40 μM LPY19, 20 μM LPY30 and LPY31
# Procedure: FIGURE 2. SINT1 binds endogenous AR in living cells to inhibit transactivation of AR NTD. A, chemical structures of EPI-002, EPI-053, LPY19, LPY30, LPY31, and SINT1 (left). The effect of SINT1 probes in AR transcriptional activity was tested in LNCaP cells transiently transfected with PSA (6.1 kb)-luciferase and exposed for 1 h to 40 μM LPY19 and 20 μM LPY30 and LPY31 before induction with 1 nM […] for 48 h. Error bars represent the mean ± S.E. of n = 3 independent experiments with triplicate wells (right). B, binding of SINT1 click chemistry analogs to FL-AR in cells. LNCaP cells were exposed to modified SINT1 (LPY19, -30, and -31), EPI-053, or DMSO vehicle overnight prior to preparing whole cell lysates for click chemistry reactions. Biotinylated SINT1 or EPI probes bound to proteins were captured with streptavidin-agarose resin prior to separation by 10% SDS-PAGE and subjected to Western blotting analysis with antibodies directed to either biotin (left) or AR (middle). Red boxes highlight where AR migrates on the gel. Right, schema of experiment. […] Right, schema of experiment.
# [3] = target: T3, Histidine-tagged AR AF-1 recombinant protein (Homo sapiens, UniProt P10275); assay: Binding assay of click chemistry probes to recombinant AR AF-1; conditions: cell-free, AF1-His tag, 1:10 molar ratio, 37 °C 3 h
# T3 construct: made in house
# T3 sequence (P10275 142-485): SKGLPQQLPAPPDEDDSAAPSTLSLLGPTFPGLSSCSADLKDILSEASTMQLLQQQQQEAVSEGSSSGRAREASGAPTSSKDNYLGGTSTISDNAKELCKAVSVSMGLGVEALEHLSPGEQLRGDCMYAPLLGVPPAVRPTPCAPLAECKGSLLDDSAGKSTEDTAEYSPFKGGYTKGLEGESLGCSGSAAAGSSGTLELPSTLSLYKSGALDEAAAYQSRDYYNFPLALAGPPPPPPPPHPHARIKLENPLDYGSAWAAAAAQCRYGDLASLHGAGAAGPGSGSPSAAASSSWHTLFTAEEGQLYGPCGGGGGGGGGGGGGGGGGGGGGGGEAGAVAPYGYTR
# Procedure: Histidine-tagged AR AF-1 recombinant protein was expressed and purified as described ([5]). The binding reaction was carried out by mixing AR AF-1 protein with alkyne-containing LPY probes or DMSO at a 1:10 molar ratio and incubated in buffer containing 10 mM HEPES, pH 7.9, and 100 mM NaCl at 37 °C for 3 h. LPY probes were labeled with biotin by copper-catalyzed click chemistry reaction at 25 °C for 1 h ([5]). Samples were resolved by 10% SDS-PAGE, and Western blotting was performed to detect biotin and histidine-tagged AR AF-1 using IRDye® 680LT streptavidin (1:5000) and anti-His (1:1000) antibody, respectively.
# Therefore, we next evaluated whether SINT1 binds the AF-1 region in AR NTD. Purified recombinant AF-1 protein (AF1-His tag) was incubated under cell-free conditions with LPY19, LPY30, and LPY31 prior to click chemistry to add a biotin to the LPY probe (see schema in Fig. 2C, right).
# [4] = target: T4, progesterone receptor (PR)-β (Homo sapiens, UniProt P06401); assay: Steroid receptor specificity: PRE-luciferase reporter in LNCaP cells; assay type: cell-based; conditions: 10 μM compound, 10 nM 4-pregnene-3,20-dione, 48 h
# T4 construct: expressed in transfected cells; host or cells: LNCaP
# T4 sequence (P06401 1-933): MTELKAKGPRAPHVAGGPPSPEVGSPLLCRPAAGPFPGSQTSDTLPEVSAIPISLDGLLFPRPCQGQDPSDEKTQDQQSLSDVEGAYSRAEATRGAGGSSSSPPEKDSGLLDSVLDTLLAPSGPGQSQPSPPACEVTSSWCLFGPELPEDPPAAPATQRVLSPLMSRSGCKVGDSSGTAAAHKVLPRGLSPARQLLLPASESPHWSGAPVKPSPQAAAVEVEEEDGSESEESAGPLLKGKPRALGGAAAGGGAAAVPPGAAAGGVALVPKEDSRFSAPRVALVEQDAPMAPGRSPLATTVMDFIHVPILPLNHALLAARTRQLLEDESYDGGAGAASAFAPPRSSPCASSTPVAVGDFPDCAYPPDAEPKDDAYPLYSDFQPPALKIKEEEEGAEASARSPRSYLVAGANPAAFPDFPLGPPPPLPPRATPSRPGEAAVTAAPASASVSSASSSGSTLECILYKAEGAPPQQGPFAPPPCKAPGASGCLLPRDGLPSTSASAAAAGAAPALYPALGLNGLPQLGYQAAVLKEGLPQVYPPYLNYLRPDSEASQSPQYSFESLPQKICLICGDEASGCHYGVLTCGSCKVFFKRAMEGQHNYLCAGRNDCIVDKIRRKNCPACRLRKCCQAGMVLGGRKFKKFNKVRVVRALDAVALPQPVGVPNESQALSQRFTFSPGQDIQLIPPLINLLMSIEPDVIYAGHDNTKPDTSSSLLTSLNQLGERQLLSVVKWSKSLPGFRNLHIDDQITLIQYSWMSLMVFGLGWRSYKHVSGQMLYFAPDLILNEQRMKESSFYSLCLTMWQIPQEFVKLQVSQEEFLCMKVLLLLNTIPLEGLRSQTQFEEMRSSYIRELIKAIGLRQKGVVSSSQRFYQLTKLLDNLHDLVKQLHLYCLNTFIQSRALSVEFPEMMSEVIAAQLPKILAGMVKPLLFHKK
# Procedure: LNCaP cells were transfected with the reporter plasmid PSA(6.1kb)-luciferase, PRE-luciferase, or GRE-luciferase and expression vector for progesterone receptor (PR)-β or glucocorticoid receptor (GR)-α in serum-free, phenol red-free medium using Lipofectin (Invitrogen). […] After 48 h of treatment, cells were lysed and analyzed for luciferase activities.
# FIGURE 1. […] A, LNCaP cells were transfected with PSA (6.1 kb)-luciferase, PRE-luciferase, or GRE-luciferase reporters and expression vector for PRβ or GRα. […] Error bars represent mean percentage of vehicle activity ±S.E. of at least three independent experiments with triplicate wells. SINT1, 10 μM; […]; ***, p < 0.001. […]. Error bars represents mean ± S.E. of three technical replicates. […] DAPI staining indicates the location of the nucleus. Scale bars, 20 μm.
# LNCaP95 cells = assay: Cell proliferation (BrdU incorporation), LNCaP95; assay type: cell-based; conditions: 48 h
# Procedure: Cells were pulse-labeled with 10 μM BrdU for 2 h. Cells were fixed, and BrdU-labeled cells were identified with anti-BrdU-peroxidase (Roche Applied Science). BrdU incorporation was measured at 570 nm using a VersaMax ELISA microplate reader (Molecular Devices). At least three independent experiments with six technical replicates were analyzed, and average values are indicated.
# [5] = LNCaP, PSA (6.1 kb)-luciferase, 1 nM R1881 48 h
binding to endogenous FL-AR (biotin band corresponding to AR after streptavidin capture) (endogenous FL-AR),SMILES,biological activity measured using an AR-driven reporter gene construct (AR [2]; [5]),binding of biotinylated probe to AF-1 [3],also measured
–,CC(C)(c1ccc(OCC(O)CO)cc1)c1ccc(OCC(O)CCl)cc1 (stereo not drawn) [EPI-001],–,–,binding to Tau5 by NMR spectroscopy (Tau5): binds in a pocket in Tau5
a band corresponding to AR,"C#CCOC[C@H](O)COc1ccc(C(C)(C)c2ccc(OC[C@H](O)CCl)cc2)cc1 [EPI-053, reference compound]",–,–,biological activity measured using an AR-driven reporter gene construct (AR [1]): had biological activity
not,C#CCCC(=O)N[C@H](CC(C)C)C(=O)N1C(=O)C=C(OC)[C@@H]1CC(C)C [LPY19],very weak activity,no binding,"activity at 20 μM, AR-driven reporter (AR [2]; 20 μM): inactive; IC50 (AR [2]; LNCaP, PSA (6.1 kb)-luciferase, 1 nM R1881 48 h, read-out: IC50, AR-driven reporter gene construct): ~40 µM"
–,"CC(O)(CS(=O)(=O)c1ccc(F)cc1)C(=O)Nc1ccc(C#N)c(C(F)(F)F)c1 (stereo not shown) [bicalutamide, reference compound]",–,–,PR transcriptional activity (PRE-luciferase) [4]: inhibited; proliferation of LNCaP95 cells (LNCaP95 cells): no effect

SMILES,binding to endogenous FL-AR (biotin band corresponding to AR after streptavidin capture) (endogenous FL-AR),biological activity measured using an AR-driven reporter gene construct (AR [2]; [5]),binding of biotinylated probe to AF-1 [3],also measured
C#CCCC(=O)NC(CCC(Cl)(Cl)Cl)C(=O)N1C(=O)C=C(OC)C1CCC(Cl)(Cl)Cl (stereo not shown) [LPY30],a band corresponding to AR,had biological activity,binding,–
